Converted amounts (≈) assume the structure as drawn.
How the values were obtained:
[1] = tested on: allo-MLR (C3H/HeN mouse splenic mononuclear cells with C57BL/6 mouse splenic mononuclear cells); assay: Allogenic mixed lymphocyte reaction (allo-MLR) in vitro, [3H]-TdR incorporation; format: cell-based; settings: 144 h, 6 days, read-out: IC50 value inhibiting allo MLR
Description: Induction and assay of allo-MLR were performed in 96 well microtiter plates. C3H/HeN (H-2^k) mouse splenic mononuclear cells (5×10^5 cells in 0.1 ml of RPMI/FCS) were mixed with an equal volume of mitomycin C-treated (50 μg/ml, 37° C., 30 min, washed 3 times with RPMI 1640) C57BL/6 (H-2^b) mouse splenic mononuclear cells (5×10^5 cells) and incubated with RPMI/FCS in 96 well microtiter plate for 6 days under the same condition as described in 1). PA-48153C was added to the allo-MLR in such a manner that its final concentration was not more than 100 ng/ml. Eighteen hours before harvesting, 0.5 μCi of [^3 H]-TdR was pulsed to each well. The cells were harvested and assayed for allo-MLR by their ability to uptake [^3 H]-TdR incorporation.

[2] = tested on: Con A reaction of mouse splenic cell; assay: Effect on mitogenic responses (Con A reaction of mouse splenic mononuclear cells, [3H]-TdR incorporation); format: cell-based, C3H/HeN mice
Description: Splenic mononuclear cells (5×10^5) from C3H/HeN mice were suspended in 0.2 ml of RPMI 1640 medium containing 10% fetal bovine serum and 5×10^-5 M 2-mercaptoethanol (RPMI/FCS) and plated 96-well microtiter plates. The cells were cultured with 5 μg/ml of Concanavalin A (Con A; Type IV, Sigma Chemical Co.) for 72 hr at 37° C. in a humidified atmosphere of 5% carbon dioxide and 95% of air. PA-48153C was dissolved in dimethyl sulfoxide (DMSO) and added to the mitogenic response. The final concentration was not more than 100 ng/ml. Eighteen hours before harvesting, 0.5 μCi of tritiated thymidine ([^3 H]-TdR) was added to each well. The cells were harvested onto glass filter paper using a semi-automated multiple cell harvester, and [^3 H]-TdR incorporation was determined by liquid scintillation counter.

CCD-19Lu = assay: Inhibition of cell growth (MTT); format: cell-based; settings: Human normal lung, MEM, 2 × 10^4 cells/well, 3-4 days, read-out: IC50 (concentration inhibiting 50% cell growth)
Description: (§1) Each cell defined in Table 3 was put in each well of a 96-well microtiter plate in one 0.1 ml-scale containing the defined number of cells and preincubated for one day under the same condition as in 1). PA-48153C (0.1 ml) was added to each well in such a manner that its final concentration was in a range from 0 to 5,000 ng/ml. After 3-4 days incubation, 25 μl of 6 mg/ml MTT [3-(4,5-dimethylthiazol-2-yl)-2,5-diphenyltetrazolium bromide] (Sigma) was added to each well. After further incubation at 37° C. for 4 hr under the same condition, formazan generated therein was dissolved by adding 50 μl of 20% […] (SDS) in 0.02N HCl and allowing to stand at 37° C. for 24 hr. An amount of formazan generated in proportion to the number of live cells was determined according to optical density analyzed by an immunoreader (Sanko Junyaku k.k.) equipped with a 570 nm-filter (reference to J. Immunol. Methods 65, 55-63 (1983)). IC50 (concentration inhibiting 50% cell growth) was calculated from the correlativity of PA-48153C concentration with optical density.

P388 = assay: Inhibition of cell growth (MTT); format: cell-based; settings: Mouse leukemia, RPMI 1640, 5 × 10^2 cells/well, 3-4 days, read-out: IC50 (concentration inhibiting 50% cell growth)
Description: as §1

Candida albicans KE-2 = assay: Antifungal activity, liquid doubling dilution method; format: cell-based; settings: KE2, YNB broth, 48 hr, 37° C., read-out: minimum inhibitory concentration (MIC)
Description: (§2) Antifungal activity of PA-48153C was determined according to the liquid doubling dilution method using Sabouraud or YNB broth.

[3] = tested on: Aspergillus fumigatus IFO 8866; assay: as above; format: cell-based; settings: IFO8866, Sabouraud broth, 24 hr, 37° C., read-out: minimum inhibitory concentration (MIC)
Description: as §2

Solubility = format: physicochemical
tumor cells = assay: Inhibition of cell growth (MTT), summary over tumor cells; format: cell-based
Description: as §1

LU-99 = assay: Inhibition of cell growth (MTT); format: cell-based, Human
Description: as §1

P388/ADM = assay: Inhibition of cell growth (MTT); format: cell-based, Mouse
Description: as §1

C/C=C/C[C@H](C)[C@@H](OC)[C@@H](C)[C@H](O)C[C@H]1OC(=O)C=C[C@H]1CC (relative stereo) [PA-48153C, (5R*,6R*)-5-ethyl-5,6-dihydro-6-[(E)-(2R*,3S*,4R*,5S*)-2-hydroxy-4-methoxy-3,5-dimethyl-7-nonenyl]-2H-pyran-2-one]
IC50 [1]: 3.1 ng/mL (≈ 0.00955 µM)
IC50 ([2]; Mus musculus, Con A 5 μg/ml, 72 hr): 4.8 ng/mL (≈ 0.0148 µM)
inhibition at 0.0017 µg/mL ([2]; Mus musculus, PA-48153C 1.7 ng/ml, Con A 5 μg/ml, 72 hr): 83.8%
inhibition at 0.0056 µg/mL ([2]; Mus musculus, PA-48153C 5.6 ng/ml, Con A 5 μg/ml, 72 hr): 61.6%
inhibition at 0.05 µg/mL ([2]; Mus musculus, PA-48153C 50.0 ng/ml, Con A 5 μg/ml, 72 hr): 94%
Radioactivity cpm ± SD ([2]; PA-48153C 1.7 ng/ml, Con A 5 μg/ml, 72 hr): 10,200 ± 451 cpm
Radioactivity cpm ± SD ([2]; PA-48153C 5.6 ng/ml, Con A 5 μg/ml, 72 hr): 24,200 ± 883 cpm
Radioactivity cpm ± SD ([2]; PA-48153C 50.0 ng/ml, Con A 5 μg/ml, 72 hr): 3,780 ± 141 cpm
inhibition of proliferative response to Con A (in words) ([2]; splenic mononuclear cell from normal mice): inhibited the proliferative response of splenic mononuclear cell from normal mice to Con A in a dose-dependent fashion
IC50 (CCD-19Lu): > 5000 ng/mL
IC50 (P388): 1.8 ng/mL (≈ 0.00555 µM)
MIC (Candida albicans KE-2): 50000 ng/mL (≈ 154 µM)
MIC [3]: 12500 ng/mL (≈ 38.5 µM)
Solubility in organic solvents (Solubility; n-hexane, ethyl acetate, chloroform, methanol): soluble in n-hexane, ethyl acetate, chloroform, methanol
Solubility in water (Solubility; water): insoluble in water
growth inhibition of tumor cells (in words) (tumor cells): strongly inhibits the growth of tumor cells
IC50 (LU-99; Lu-99, Human giant-cell carcinoma of lung, RPMI 1640, 2 × 10^3 cells/well, 3-4 days, read-out: IC50 (concentration inhibiting 50% cell growth)): 2.2 ng/mL (≈ 0.00678 µM)
IC50 to normal lung cell CCD-19Lu relative to that to giant-cell carcinoma of lung Lu-99 (LU-99; ratio CCD-19Lu / Lu-99): at least 2,500 times
growth inhibition of multi-resistant carcinoma P388/ADM (in words) (P388/ADM): strongly inhibits the growth of multi-resistant carcinoma P388/ADM
IC50 (P388/ADM; P388/ADM, Mouse leukemia (multi-resistant carcinoma), RPMI 1640, 5 × 10^2 cells/well, 3-4 days, read-out: IC50 (concentration inhibiting 50% cell growth)): 4.8 ng/mL (≈ 0.0148 µM)

Source: patent US5314911A, “Immunosuppressive agent” (Shionogi Seiyaku Kabushiki Kaisha, priority 1992, dated 1994)
